Assay results from US20240270759A1, “Preparation of SHP2 phosphatase inhibitors and its applications” (Ya Therapeutics Inc, priority 2021, published 2024).

molecular target: T1, SHP2 full-length protein (Homo sapiens, UniProt Q06124); test: SHP2 allosteric inhibition experiment (Homogeneous Full Length SHP-2 Assay Kit); assay type: biochemical; details: full-length SHP2 0.06 nM with SHP-2 activating peptide; ten-point, 1 μM to 0.05 nM; read-out: IC50 Values of Compounds Inhibiting SHP2
T1 construct: purchased BPS Bioscience #79330
T1 sequence (Q06124 1-593): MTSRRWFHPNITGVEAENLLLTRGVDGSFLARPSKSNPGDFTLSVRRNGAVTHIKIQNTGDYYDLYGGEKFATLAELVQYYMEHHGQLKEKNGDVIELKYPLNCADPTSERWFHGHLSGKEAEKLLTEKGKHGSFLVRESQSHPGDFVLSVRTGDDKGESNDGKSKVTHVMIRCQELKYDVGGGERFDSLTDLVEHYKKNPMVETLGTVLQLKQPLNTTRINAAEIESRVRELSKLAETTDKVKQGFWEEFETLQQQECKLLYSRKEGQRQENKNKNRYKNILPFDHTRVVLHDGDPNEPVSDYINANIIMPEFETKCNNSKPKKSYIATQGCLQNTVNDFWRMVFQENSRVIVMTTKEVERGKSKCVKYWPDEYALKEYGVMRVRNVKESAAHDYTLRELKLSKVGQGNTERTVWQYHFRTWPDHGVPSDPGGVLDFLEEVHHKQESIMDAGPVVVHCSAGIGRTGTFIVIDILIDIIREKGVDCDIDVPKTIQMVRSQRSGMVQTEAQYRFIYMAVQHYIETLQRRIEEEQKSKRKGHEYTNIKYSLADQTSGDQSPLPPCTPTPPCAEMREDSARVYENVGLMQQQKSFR

Row | SMILES | IC50 [µM]
1 | C[C@@H]1OCC2(CCN(c3ccc4nc(Sc5cccc(NC(=O)c6ccncn6)c5Cl)ncc4n3)CC2)[C@@H]1N [Compound 83, N-(3-((6-((3S,4S)-4-amino-3-methyl-2-oxa-8-azaspiro[4.5]decane-8-yl)pyridinyl[3,2-d]pyrimidine-2-yl)mercapto)-2-chlorophenyl)pyrimidine-4-carboxamide] | ≤ 0.01
2 | CC(C)n1ccc(-c2cccc(Sc3cnc(N4CCC5(CC4)CO[C@@H](C)[C@H]5N)nc3)c2Cl)n1 [Compound 113, (3S,4S)-8-(5-((2-chloro-3-(1-isopropyl-1H-pyrazole-3-yl)phenyl)mercapto)pyrimidine-2-yl)-3-methyl-2-oxa-8-azaspiro[4.5]decane-4-amine] | 0.01 to 0.1
3 | Nc1nccc(-n2c(=O)[nH]c3nc(N4CCC5(CC4)Cc4cnccc4[C@H]5N)ccc3c2=O)c1Cl [Compound 27, (S)-3-(2-amino-3-chloropyridine-4-yl)-7-(5-amino-5,7-dihydrospiro[cyclopenta[c]pyridine-6,4′-piperidine]-1′-yl) pyridinyl[2,3-d]pyrimidine-2,4(1H,3H)-dione] | ≤ 0.01
4 | C[C@@H]1OCC2(CCN(c3ncc(Sc4cccc(NC(=O)c5c(O)nc6n(c5=O)CCCC6)c4Cl)nn3)CC2)[C@@H]1N [Compound 130, N-(3-((2-((3S,4S)-4-amino-3-methyl-2-oxa-8-azaspiro[4.5]decane-8-yl)-1,2,4-triazine-6-yl)mercapto)-2-chlorophenyl)-2-hydroxy-4-oxo-6,7,8,9-tetrahydro-4H-pyridinyl[1,2-a]pyrimidine-3-carboxamide] | ≤ 0.01
5 | C[C@@H]1OCC2(CCN(c3ccc4nc(Sc5cccc(-c6ccn(C)n6)c5Cl)cnc4n3)CC2)[C@@H]1N [Compound 91, (3S,4S)-8-(2-((2-chloro-3-(1-methyl-1H-pyrazole-3-yl)phenyl)mercapto)pyridinyl[2,3-b]pyrazine-6-yl)-3-methyl-2-oxa-8-azaspiro[4.5]decane-4-amine] | ≤ 0.01
6 | C[C@@H]1OCC2(CCN(c3ccc4nc(Sc5cccc(NC(=O)c6c(O)nc7n(c6=O)CCCC7)c5Cl)ncc4n3)CC2)[C@@H]1N [Compound 89, N-(3-((6-((3S,4S)-4-amino-3-methyl-2-oxa-8-azaspiro[4.5]decane-8-yl)pyridinyl[3,2-d]pyrimidine-2-yl)mercapto)-2-chlorophenyl)-2-hydroxy-4-oxo-6,7,8,9-tetrahydro-4H-pyridinyl[1,2-a]pyrimidine-3-carboxamide] | ≤ 0.01
7 | C[C@@H]1OCC2(CCN(c3ncc4nc(Sc5cccc(-c6cnccn6)c5Cl)cnc4n3)CC2)[C@@H]1N [Compound 73, (3S,4S)-8-(6-((2-chloro-3-(pyrazine-2-yl)phenyl)mercapto)pteridine-2-yl)-3-methyl-2-oxa-8-azaspiro[4.5]decane-4-amine] | ≤ 0.01
8 | C[C@@H]1OCC2(CCN(c3ccc4c(=O)n(-c5cccc(Cl)c5Cl)c(=O)[nH]c4c3)CC2)C1N (stereo in doubt) [Compound 1, 7-((3S,4S)-4-amino-3-methyl-2-oxa-8-azaspiro[4.5]decane-8-yl)-3-(2,3-dichlorophenyl)quinazoline-2,4(1H,3H)-dione] | ≤ 0.01
9 | C[C@@H]1OCC2(CCN(c3ncc(Sc4cccc(-c5cnccn5)c4Cl)cn3)CC2)[C@@H]1N [Compound 116, (3S,4S)-8-(5-((2-chloro-3-(pyrazine-2-yl)phenyl)mercapto)pyrimidine-2-yl)-3-methyl-2-oxa-8-azaspiro[4.5]decane-4-amine] | ≤ 0.01
10 | C[C@@H]1OCC2(CCN(c3cnc(Sc4cccc(-c5cnccn5)c4Cl)nn3)CC2)[C@@H]1N [Compound 134, (3S,4S)-8-(3-((2-chloro-3-(pyrazine-2-yl)phenyl)mercapto)-1,2,4-triazine-6-yl)-3-methyl-2-oxa-8-azaspiro[4.5]decane-4-amine] | ≤ 0.01
11 | C[C@@H]1OCC2(CCN(c3ccc4nc(Sc5cccc(-c6cccnc6)c5Cl)ncc4n3)CC2)[C@@H]1N [Compound 80] | ≤ 0.01
12 | CCn1ccc(-c2cccc(Sc3cnc(N4CCC5(CC4)CO[C@@H](C)[C@H]5N)nn3)c2Cl)n1 [Compound 131, (3S,4S)-8-(6-((2-chloro-3-(1-ethyl-1H-pyrazole-3-yl)phenyl)mercapto)-1,2,4-triazine-3-yl)-3-methyl-2-oxa-8-azaspiro[4.5]decane-4-amine] | ≤ 0.01
13 | C[C@@H]1OCC2(CCN(c3ncc(Sc4cccc(NC(=O)c5c(O)nc6n(c5=O)CCCC6)c4Cl)cn3)CC2)[C@@H]1N [Compound 114, N-(3-((2-((3S,4S)-4-amino-3-methyl-2-oxa-8-azaspiro[4.5]decane-8-yl)pyrimidine-5-yl)mercapto)-2-chlorophenyl)-2-hydroxyl-4-oxo-6,7,8,9-tetrahydro-4H-pyridinyl[1,2-a]pyrimidine-3-carboxamide] | 0.01 to 0.1
14 | C[C@@H]1OCC2(CCN(c3ccc4nc(Sc5cccc(Oc6ccn(C)n6)c5Cl)ncc4n3)CC2)[C@@H]1N [Compound 95] | ≤ 0.01
15 | N[C@@H]1c2ccncc2CC12CCN(c1cnc3c(=O)n(-c4ccnc(NC5CC5)c4Cl)c(=O)[nH]c3n1)CC2 [Compound 24] | ≤ 0.01

The next lines start with the values.

Row | IC50 [µM] | SMILES
16 | ≤ 0.01 | C[C@@H]1OCC2(CCN(c3ncc4nc(Sc5cccc(NC(=O)c6c(O)nc7n(c6=O)CCCC7)c5Cl)ccc4n3)CC2)[C@@H]1N [Compound 96, N-(3-((2-((3S,4S)-4-amino-3-methyl-2-oxa-8-azaspiro[4.5]decane-8-yl)pyridinyl[3,2-d]pyrimidine-6-yl)mercapto)-2-chlorophenyl)-2-hydroxy-4-oxo-6,7,8,9-tetrahydro-4H-pyridinyl[1,2-a]pyrimidine-3-carboxamide]
17 | ≤ 0.01 | C[C@@H]1OCC2(CCN(c3ccc4nc(Sc5cccc(-c6ccn(C)n6)c5Cl)ncc4n3)CC2)[C@@H]1N [Compound 65, (3S,4S)-8-(2-((2-chloro-3-(1-methyl-1H-pyrazole-3-yl)phenyl)mercapto)pyridinyl[3,2-d]pyrimidine-6-yl)-3-methyl-2-oxa-8-azaspiro[4.5]decane-4-amine]
18 | ≤ 0.01 | C[C@@H]1OCC2(CCN(c3ncc4nc(Sc5cccc(-c6ccn(C)n6)c5Cl)ccc4n3)CC2)[C@@H]1N [Compound 90, (3S,4S)-8-(6-((2-chloro-3-(1-methyl-1H-pyrazole-3-yl)phenyl)mercapto)pyridinyl[3,2-b]pyrimidine-2-yl)-3-methyl-2-oxa-8-azaspiro[4.5]decane-4-amine]
19 | ≤ 0.01 | CCn1ccc(-c2cccc(Sc3ncc(N4CCC5(CC4)CO[C@@H](C)[C@H]5N)cn3)c2Cl)n1 [Compound 100, (3S,4S)-8-(2-((2-chloro-3-(1-ethyl-1H-pyrazole-3-yl)phenyl)mercapto)pyrimidine-5-yl)-3-methyl-2-oxa-8-azaspiro[4.5]decane-4-amine]
20 | ≤ 0.01 | NC1COCC12CCN(c1ccc3c(=O)n(-c4cccc(Cl)c4Cl)c(=O)[nH]c3c1)CC2 (stereo in doubt) [Compound 2, (S)-7-(4-amino-2-oxa-8-azaspiro[4.5]decane-8-yl)-3-(2,3-dichlorophenyl)quinazoline-2,4(1H,3H)-dione]
21 | ≤ 0.01 | C[C@@H]1OCC2(CCN(c3nnc(Sc4cccc(-c5cnccn5)c4Cl)nn3)CC2)[C@@H]1N [Compound 133, (3S,4S)-8-(3-((2-chloro-3-(pyrazine-2-yl)phenyl)mercapto)-tetrazine-6-yl)-3-methyl-2-oxa-8-azaspiro[4.5]decane-4-amine]
22 | ≤ 0.01 | N[C@@H]1c2ccncc2CC12CCN(c1ccc3c(=O)n(-c4cccc(Cl)c4Cl)c(=O)[nH]c3n1)CC2 [Compound 26, (S)-7-(5-Amino-5,7-dihydrospiro [cyclopenta[c]pyridine-6,4′-piperidine]-1′-yl)-3-(2,3-dichlorophenyl)pyridinyl[2,3-d]pyrimidine-2,4(1H,3H)-dione]
